# Measurements published in US20070128217A1 (priority 2003, published 2007).
# Tests used:
# [1] = tested on: control sera (pooled serum of ten healthy LUMC hospital workers; commercial negative donor pooled serum from the Dutch bloodbank); assay type: binding, human; set-up: Binding of Control serum LUMC to linear peptides / Binding of Control serum Blood-bank to linear peptides / Binding of Control serum LUMC to looped peptides / Binding of Control Serum Blood-Bank to Looped peptides / Binding of Control serum LUMC to linear peptides of the protein M of SARS-CoV Urbani / Binding of Control serum Blood-bank to linear peptides of the protein M of SARS-CoV Urbani / Binding of Control serum LUMC to looped peptides of the protein M of SARS-CoV Urbani / Binding of Control Serum Blood-Bank to Looped peptides of the protein M of SARS-CoV Urbani: unit not given here
# [2] = tested on: antibodies in sera from SARS patients (sera 1a, 1b, 2, 6, 37, 62, London, SARS-yellow, SARS-green); assay type: binding, human; set-up: Binding of serum 6 to linear peptides of protein X1 of SARS-CoV Urbani / Binding of serum 37 to linear peptides of protein X1 of SARS-CoV Urbani / Binding of serum 6 to looped/cyclic peptide (PEPSCAN-ELISA) / Binding of serum 37 to looped/cyclic peptide (PEPSCAN-ELISA) / Binding of serum 37 to looped/cyclic peptides of protein X1 of SARS-CoV Urbani / Binding of serum 6 to linear peptides of protein X2 / Binding of serum 37 to linear peptides of protein X2 / Binding of serum 37 to looped/cyclic peptides of protein X2 of SARS-CoV Urbani / Binding of serum 6 to linear peptides of protein M of SARS-CoV Urbani / Binding of serum 37 to linear peptides of protein M of SARS-CoV Urbani / Binding of serum 6 to looped/cyclic peptides of protein M of SARS-CoV Urbani / Binding of serum 37 to looped/cyclic peptides of protein M of SARS-CoV Urbani / Binding of serum 6 to linear peptides of protein X3 of SARS-CoV Urbani / Binding of serum 37 to linear peptides of protein X3 of SARS-CoV Urbani / Binding of serum 37 to looped/cyclic peptides of protein X3 of SARS-CoV Urbani / Binding of serum 6 to linear peptides of protein X4 of SARS-CoV Urbani / Binding of serum 37 to linear peptides of protein X4 of SARS-CoV Urbani / Binding of serum 37 to looped/cyclic peptides of protein X4 of SARS-CoV Urbani / Binding of serum 6 to linear peptides of protein X5 of SARS-CoV Urbani / Binding of serum 37 to linear peptides of protein X5 of SARS-CoV Urbani / Binding of serum 37 to looped/cyclic peptides of protein X5 of SARS-CoV Urbani / Binding of serum 6 to linear peptides of protein N of SARS-CoV Urbani / Binding of serum 37 to linear peptides of protein N of SARS-CoV Urbani / Binding of serum 6 to linear peptide (PEPSCAN-ELISA) / Binding of serum 1a to looped/cyclic peptides of protein N of SARS-CoV Urbani / Binding of serum 1b to looped/cyclic peptides of protein N of SARS-CoV Urbani / Binding of serum 2 to looped/cyclic peptides of protein N of SARS-CoV Urbani / Binding of serum 6 to looped/cyclic peptides of protein N of SARS-CoV Urbani / Binding of serum 37 to looped/cyclic peptides of protein N of SARS-CoV Urbani / Binding of serum 62 to looped/cyclic peptides of protein N of SARS-CoV Urbani / Binding of serum London to looped/cyclic peptides of protein N of SARS-CoV Urbani / Binding of serum SARS-green to looped/cyclic peptides of protein N of SARS-CoV Urbani: unit not given here
# [3] = tested on: rabbit serum obtained by immunizing a rabbit with the SARS-CoV strain Frankfurt 1; assay type: binding; set-up: Binding of a rabbit serum to linear peptides / Binding of a rabbit serum to looped peptides / Rabbit serum linear peptides / Rabbit serum looped peptides / Binding of a rabbit serum to linear peptides of protein N of SARS-CoV Urbani (Rabbit serum linear peptides) / Binding of a rabbit serum to looped/cyclic peptides of protein N of SARS-CoV Urbani (Rabbit serum looped peptides): unit not given here
sequence,measurement,setting,value
AIAMACIVGLMWLSY,Binding of Control Serum Blood-Bank to Looped peptides of the protein M of SARS-CoV Urbani,[1],0.6
same,Binding of Control serum Blood-bank to linear peptides of the protein M of SARS-CoV Urbani,[1],0.7
same,Binding of Control serum LUMC to linear peptides of the protein M of SARS-CoV Urbani,[1],0.3
same,Binding of Control serum LUMC to looped peptides of the protein M of SARS-CoV Urbani,[1],0.6
same,Binding of serum 1a to linear peptides of protein M of SARS-CoV Urbani,[2],0.7
same,Binding of serum 1a to looped/cyclic peptides of protein M of SARS-CoV Urbani,[2],0.5
same,Binding of serum 1b to linear peptides of protein M of SARS-CoV Urbani,[2],0.5
same,Binding of serum 1b to looped/cyclic peptides of protein M of SARS-CoV Urbani,[2],0.3
same,Binding of serum 2 to linear peptides of protein M of SARS-CoV Urbani,[2],0.6
same,Binding of serum 2 to looped/cyclic peptides of protein M of SARS-CoV Urbani,[2],0.4
same,Binding of serum 6 to linear peptides of protein M of SARS-CoV Urbani,[2],0.4
same,Binding of serum 6 to looped/cyclic peptides of protein M of SARS-CoV Urbani,[2],0.6
same,Binding of serum 37 to linear peptides of protein M of SARS-CoV Urbani,[2],0.7
same,Binding of serum 37 to looped/cyclic peptides of protein M of SARS-CoV Urbani,[2],0.5
same,Binding of serum 62 to linear peptides of protein M of SARS-CoV Urbani,[2],0.7
same,Binding of serum 62 to looped/cyclic peptides of protein M of SARS-CoV Urbani,[2],0.4
same,Binding of serum London to linear peptides of protein M of SARS-CoV Urbani,[2],0.4
same,Binding of serum London to looped/cyclic peptides of protein M of SARS-CoV Urbani,[2],0.2
same,Binding of serum SARS-green to linear peptides of protein M of SARS-CoV Urbani,[2],0.3
same,Binding of serum SARS-green to looped/cyclic peptides of protein M of SARS-CoV Urbani,[2],4.4
same,Binding of serum SARS-yellow to linear peptides of protein M of SARS-CoV Urbani,[2],0.1
same,Binding of serum SARS-yellow to looped/cyclic peptides of protein M of SARS-CoV Urbani,[2],0.8
same,Rabbit serum linear peptides,[3],0.4
same,Rabbit serum looped peptides,[3],0.0
TATIPLQASLPFGWL,Binding of Control Serum Blood-Bank to Looped peptides,[1],0.8
same,Binding of Control serum Blood-bank to linear peptides,[1],1.0
same,Binding of Control serum LUMC to linear peptides,[1],0.8
same,Binding of Control serum LUMC to looped peptides,[1],0.8
same,Binding of serum 1a to linear peptides of protein X1 of SARS-CoV Urbani,[2],0.9
same,Binding of serum 1a to looped/cyclic peptide (PEPSCAN-ELISA),[2],0.7
same,Binding of serum 1b to linear peptides of protein X1 of SARS-CoV Urbani,[2],0.8
same,Binding of serum 1b to looped/cyclic peptide (PEPSCAN-ELISA),[2],0.6
same,Binding of serum 2 to linear peptides of protein X1 of SARS-CoV Urbani,[2],0.6
same,Binding of serum 2 to looped/cyclic peptide (PEPSCAN-ELISA),[2],0.5
same,Binding of serum 6 to linear peptides of protein X1 of SARS-CoV Urbani,[2],0.7
same,Binding of serum 6 to looped/cyclic peptide (PEPSCAN-ELISA),[2],0.5
same,Binding of serum 37 to linear peptides of protein X1 of SARS-CoV Urbani,[2],0.7
same,Binding of serum 37 to looped/cyclic peptide (PEPSCAN-ELISA),[2],0.8
same,Binding of serum 62 to linear peptides of protein X1 of SARS-CoV Urbani,[2],0.7
same,Binding of serum 62 to looped/cyclic peptide (PEPSCAN-ELISA),[2],0.8
same,Binding of serum London to linear peptides of protein X1 of SARS-CoV Urbani,[2],0.3
same,Binding of serum London to looped/cyclic peptide (PEPSCAN-ELISA),[2],0.3
same,Binding of serum SARS-green to linear peptides of protein X1 of SARS-CoV Urbani,[2],0.5
same,Binding of serum SARS-green to looped/cyclic peptide (PEPSCAN-ELISA),[2],0.5
same,Binding of serum SARS-yellow to linear peptides of protein X1 of SARS-CoV Urbani,[2],0.3
same,Binding of serum SARS-yellow to looped/cyclic peptide (PEPSCAN-ELISA),[2],0.5
same,Binding of a rabbit serum to linear peptides,[3],0.1
same,Binding of a rabbit serum to looped peptides,[3],0.6
ACADGTRHTYQLRAR,Binding of Control Serum Blood-Bank to Looped peptides,[1],0.5
same,Binding of Control serum Blood-bank to linear peptides,[1],0.6
same,Binding of Control serum LUMC to linear peptides,[1],0.6
same,Binding of Control serum LUMC to looped peptides,[1],0.5
same,Binding of serum 1a to linear peptides of protein X4 of SARS-CoV Urbani,[2],0.7
same,Binding of serum 1a to looped/cyclic peptides of protein X4 of SARS-CoV Urbani,[2],0.7
same,Binding of serum 1b to linear peptides of protein X4 of SARS-CoV Urbani,[2],0.6
same,Binding of serum 1b to looped/cyclic peptides of protein X4 of SARS-CoV Urbani,[2],0.3
same,Binding of serum 2 to linear peptides of protein X4 of SARS-CoV Urbani,[2],0.5
same,Binding of serum 2 to looped/cyclic peptides of protein X4 of SARS-CoV Urbani,[2],0.6
same,Binding of serum 6 to linear peptides of protein X4 of SARS-CoV Urbani,[2],0.6
same,Binding of serum 6 to looped/cyclic peptides of protein X4 of SARS-CoV Urbani,[2],0.6
same,Binding of serum 37 to linear peptides of protein X4 of SARS-CoV Urbani,[2],0.7
same,Binding of serum 37 to looped/cyclic peptides of protein X4 of SARS-CoV Urbani,[2],0.7
same,Binding of serum 62 to linear peptides of protein X4 of SARS-CoV Urbani,[2],0.8
same,Binding of serum 62 to looped/cyclic peptides of protein X4 of SARS-CoV Urbani,[2],0.6
same,Binding of serum London to linear peptides of protein X4 of SARS-CoV Urbani,[2],0.7
same,Binding of serum London to looped/cyclic peptides of protein X4 of SARS-CoV Urbani,[2],0.3
same,Binding of serum SARS-green to linear peptides of protein X4 of SARS-CoV Urbani,[2],0.7
same,Binding of serum SARS-green to looped/cyclic peptides of protein X4 of SARS-CoV Urbani,[2],0.5
same,Binding of serum SARS-yellow to linear peptides of protein X4 of SARS-CoV Urbani,[2],0.5
same,Binding of serum SARS-yellow to looped/cyclic peptides of protein X4 of SARS-CoV Urbani,[2],0.5
same,Recognition of the peptide by the rabbit serum,[3],recognized
